From PubChem BioAssay AID330 (DTP/NCI, 2004)
“And” between values parts separate entries of the source, which are not always exact repeats. Equal entries are not always repeated. Toxic doses and inconclusive results are not listed. Rule for the calls: active = survival T/C of 150% or more; inactive = T/C below 125% in these data. Peptide text beside a SMILES is read from it. * marks the point of attachment. Trt = c1ccc(C(c2ccccc2)(c2ccccc2)*)cc1; Benzhydryl = c1ccc(C(c2ccccc2)*)cc1; Cbz = O=C(OCc1ccccc1)*

Test system: P388 leukemia ip, CD2F1 mice, survival T/C
Test: NCI In Vivo Anticancer Drug Screen. Data for tumor model P388 Leukemia (intraperitoneal) in CD2F1 (CDF1) mice
Details: endpoint: median survival time, higher = longer survival
In short: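 Mice carrying the transplanted tumor received test compound or vehicle. Survival was recorded in each group, and the value is the treated-group measurement divided by that of the vehicle-treated control group.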

[1] = dose: 50.0 mg/kg/injection, schedule: Q01DX009 (ip), vehicle: Klucel (hydroxypropylcellulose) (HPC)
[2] = dose: 200.0 mg/kg/injection, schedule: Q01DX009 (ip), vehicle: Klucel (hydroxypropylcellulose) (HPC)
[3] = dose: 50.0 mg/kg/injection, schedule: Q01DX009 (ip), vehicle: saline with Tween-80
[4] = dose: 100.0 mg/kg/injection, schedule: Q01DX009 (ip), vehicle: saline with Tween-80
[5] = dose: 200.0 mg/kg/injection, schedule: Q01DX009 (ip), vehicle: saline with Tween-80
[6] = dose: 25.0 mg/kg/injection, schedule: Q04DX003 (ip), vehicle: saline with Tween-80
[7] = dose: 50.0 mg/kg/injection, schedule: Q04DX003 (ip), vehicle: saline with Tween-80
[8] = dose: 100.0 mg/kg/injection, schedule: Q04DX003 (ip), vehicle: saline with Tween-80
[9] = dose: 50.0 mg/kg/injection, schedule: Q01DX005 (ip), vehicle: saline with Tween-80
[10] = dose: 100.0 mg/kg/injection, schedule: Q01DX005 (ip), vehicle: saline with Tween-80
[11] = dose: 200.0 mg/kg/injection, schedule: Q01DX005 (ip), vehicle: saline with Tween-80
[12] = dose: 200.0 mg/kg/injection, schedule: Q04DX003 (ip), vehicle: saline with Tween-80
[13] = dose: 400.0 mg/kg/injection, schedule: Q04DX003 (ip), vehicle: saline with Tween-80
[14] = dose: 60.0 mg/kg/injection, schedule: Q01DX005 (ip), vehicle: saline with Tween-80
[15] = dose: 120.0 mg/kg/injection, schedule: Q01DX005 (ip), vehicle: saline with Tween-80
[16] = dose: 240.0 mg/kg/injection, schedule: Q01DX005 (ip), vehicle: saline with Tween-80
[17] = dose: 12.5 mg/kg/injection, schedule: Q01DX009 (ip), vehicle: saline with Tween-80
[18] = dose: 25.0 mg/kg/injection, schedule: Q01DX009 (ip), vehicle: saline with Tween-80
[19] = dose: 50.0 mg/kg/injection, schedule: Q01DX005 (ip), vehicle: Klucel (hydroxypropylcellulose) (HPC)
[20] = dose: 100.0 mg/kg/injection, schedule: Q01DX005 (ip), vehicle: Klucel (hydroxypropylcellulose) (HPC)
[21] = dose: 200.0 mg/kg/injection, schedule: Q01DX005 (ip), vehicle: Klucel (hydroxypropylcellulose) (HPC)
[22] = dose: 100.0 mg/kg/injection, schedule: Q01DX001 (ip), vehicle: Klucel (hydroxypropylcellulose) (HPC)
[23] = dose: 200.0 mg/kg/injection, schedule: Q01DX001 (ip), vehicle: Klucel (hydroxypropylcellulose) (HPC)
[24] = dose: 400.0 mg/kg/injection, schedule: Q01DX001 (ip), vehicle: Klucel (hydroxypropylcellulose) (HPC)

Measured: T/C

O=C1C2C3C=CC(C3)C2C(=O)N1CNc1ccc2nc(SC3C=CCCC3)sc2c1 (stereo not given)
inactive: dose: 12.5 mg/kg/injection, schedule: Q01DX009 (ip), vehicle: Klucel (hydroxypropylcellulose) (HPC) 106 % of control | dose: 25.0 mg/kg/injection, schedule: Q01DX009 (ip), vehicle: Klucel (hydroxypropylcellulose) (HPC) 101 % of control | [1] 90 % of control and 98 % of control | [2] 91 % of control

CCOC(=O)C(C)ONC(=O)Nc1ccc(Cl)cc1 (stereo not given)
inactive: [3] 105 % of control | [4] 103 % of control | [5] 95 % of control

O=C(O)c1cc(C(=O)O)cc([N+](=O)[O-])c1
inactive: [6] 100 % of control | [7] 100 % of control | [8] 100 % of control

Cc1nc(O)c(-c2ccc(Cl)cc2)s1
inactive: [3] 102 % of control | [4] 103 % of control | [5] 101 % of control

Cc1nnc(N/N=C/c2ccc([N+](=O)[O-])o2)[nH]c1=O
inactive: dose: 6.25 mg/kg/injection, schedule: Q01DX005 (ip), vehicle: saline with Tween-80 101 % of control and 114 % of control | dose: 12.5 mg/kg/injection, schedule: Q01DX005 (ip), vehicle: saline with Tween-80 115 % of control and 118 % of control (2×)

CC(=O)C(C[n+]1ccccc1)c1ccccc1 (stereo not given)
inactive: dose: 15.0 mg/kg/injection, schedule: Q01DX005 (ip), vehicle: saline 98 % of control | dose: 30.0 mg/kg/injection, schedule: Q01DX005 (ip), vehicle: saline 98 % of control | dose: 60.0 mg/kg/injection, schedule: Q01DX005 (ip), vehicle: saline 102 % of control and 107 % of control

COC(=O)C(Cc1ccccc1)NC(=O)C(Cc1ccccc1)NC(=O)CNC(=O)C(CSC(c1ccccc1)c1ccccc1)NC(=O)C(CSC(c1ccccc1)(c1ccccc1)c1ccccc1)NC(=O)OCc1ccccc1 (stereo not given) (Cbz-C(Trt)C(Benzhydryl)GFF-OMe; configuration not given here)
inactive: dose: 100.0 mg/kg/injection, schedule: Q04DX002 (ip), vehicle: Klucel (hydroxypropylcellulose) (HPC) 88 % of control | dose: 200.0 mg/kg/injection, schedule: Q04DX002 (ip), vehicle: Klucel (hydroxypropylcellulose) (HPC) 98 % of control | dose: 400.0 mg/kg/injection, schedule: Q04DX002 (ip), vehicle: Klucel (hydroxypropylcellulose) (HPC) 98 % of control

Fc1cccc(N=Nc2c(-c3ccccc3)nn(C(=S)S)c2-c2ccccc2)c1
inactive: [9] 104 % of control | [10] 101 % of control | [11] 106 % of control

CN(C)C(=S)NCc1ccccc1
inactive: [8] 100 % of control | [12] 100 % of control

COc1ccccc1C1NC(c2ccccc2OC)C2CCCC1C2=O (stereo not given)
inactive: dose: 100.0 mg/kg/injection, schedule: Q04DX003 (ip), vehicle: saline 88 % of control | dose: 200.0 mg/kg/injection, schedule: Q04DX003 (ip), vehicle: saline 88 % of control | dose: 400.0 mg/kg/injection, schedule: Q04DX003 (ip), vehicle: saline 90 % of control

O=C1C=C(Nc2ccccc2)CCC1
inactive: [8] 100 % of control | [12] 105 % of control | [13] 105 % of control

CCOc1nc(N)nc(C)c1N=Nc1ccc(Br)cc1
inactive: dose: 60.0 mg/kg/injection, schedule: Q01DX005 (ip), vehicle: Klucel + Tween-80 100 % of control | dose: 120.0 mg/kg/injection, schedule: Q01DX005 (ip), vehicle: Klucel + Tween-80 104 % of control | dose: 240.0 mg/kg/injection, schedule: Q01DX005 (ip), vehicle: Klucel + Tween-80 99 % of control

Nc1nc(SCc2ccccc2)sc1C(=O)N1CCCCC1
inactive: [1] 100 % of control | dose: 100.0 mg/kg/injection, schedule: Q01DX009 (ip), vehicle: Klucel (hydroxypropylcellulose) (HPC) 100 % of control | [2] 101 % of control

COC(=O)c1cc(OCC#CC#CCOc2ccc(O)c(C(=O)OC)c2)ccc1O
inactive: [14] 95 % of control | [15] 89 % of control | [16] 86 % of control

CCOC(=O)C(C)(C)c1nc[nH]c1[N+](=O)[O-]
inactive: dose: 12.5 mg/kg/injection, schedule: Q04DX003 (ip), vehicle: saline with Tween-80 100 % of control | [6] 104 % of control | [7] 100 % of control | [12] 98 % of control | [13] 101 % of control

O=C1c2cscc2C(=O)c2cscc21
inactive: [17] 98 % of control | [18] 100 % of control | [3] 96 % of control | [4] 94 % of control

N#Cc1c(N)sc(=S)c2ccccc12
inactive: dose: 50.0 mg/kg/injection, schedule: Q01DX009 (ip), vehicle: saline 91 % of control | dose: 100.0 mg/kg/injection, schedule: Q01DX009 (ip), vehicle: saline 104 % of control | dose: 200.0 mg/kg/injection, schedule: Q01DX009 (ip), vehicle: saline 95 % of control

CCN(CC)c1ccc2c(c1)Oc1cc(N(CC)CC)ccc1C21c2ccccc2C(=O)N1c1ccccc1
inactive: [19] 98 % of control | [20] 99 % of control | [21] 103 % of control

CCCCCCC(=O)/C=C/c1ccc([N+](=O)[O-])cc1
inactive: [3] 99 % of control | [4] 99 % of control | [5] 92 % of control

CC(C)(C)CC(C)(C)c1ccc(OCc2cccc(F)c2)cc1
inactive: [3] 97 % of control | [4] 97 % of control | [5] 100 % of control

CN1C(=O)CC(NC(=O)CNC(=O)c2ccccc2)C1=O (stereo not given)
inactive: [14] 97 % of control | [15] 94 % of control | [16] 90 % of control

Clc1ccccc1C=NCC1CCC(CN=Cc2ccccc2Cl)CC1 (stereo not given)
inactive: dose: 6.25 mg/kg/injection, schedule: Q01DX009 (ip), vehicle: saline with Tween-80 99 % of control | [17] 101 % of control | [18] 100 % of control | [3] 116 % of control

O=C(CBr)Nc1c(Br)cc(Cl)cc1Br
inactive: [3] 100 % of control | [4] 88 % of control | [5] 100 % of control

CCCCCCCC(=O)NCCCC(C)Nc1cc(OC)cc2cccnc12 (stereo not given)
inactive: [14] 106 % of control | [15] 99 % of control

OCC(Br)(Br)Br
inactive: dose: 100.0 mg/kg/injection, schedule: Q01DX001 (ip), vehicle: saline with Tween-80 100 % of control | dose: 200.0 mg/kg/injection, schedule: Q01DX001 (ip), vehicle: saline with Tween-80 98 % of control | dose: 400.0 mg/kg/injection, schedule: Q01DX001 (ip), vehicle: saline with Tween-80 100 % of control

CC1(O)CCC(O)CC1CC[N+](C)(C)[O-] (stereo not given)
inactive: dose: 50.0 mg/kg/injection, schedule: Q01DX005 (ip), vehicle: saline 102 % of control | dose: 100.0 mg/kg/injection, schedule: Q01DX005 (ip), vehicle: saline 99 % of control | dose: 200.0 mg/kg/injection, schedule: Q01DX005 (ip), vehicle: saline 102 % of control

O=c1oc(-c2cccc(-c3nc4sc5c(c4c(=O)o3)CCCC5)c2)nc2sc3c(c12)CCCC3
inactive: [22] 93 % of control | [23] 91 % of control | [24] 89 % of control

S=C(Cl)Sc1ccc(-c2ccc(SC(=S)Cl)cc2)cc1
inactive: [19] 88 % of control | [20] 88 % of control | [21] 87 % of control

CCC(c1ccc(O)cc1)c1cc2c(cc1OCC(=O)OC)OCO2 (stereo not given)
inactive: [9] 97 % of control | [10] 93 % of control | [11] 88 % of control

C=Cc1cc(OCC)c(OC)c2ccc3ccc(OC)c(OC)c3c12
inactive: [22] 95 % of control | [23] 103 % of control | [24] 92 % of control

N=C(N)c1ccc(OCCCCOc2ccc(N)cc2Cl)cc1
inactive: dose: 30.0 mg/kg/injection, schedule: Q01DX005 (ip), vehicle: saline with Tween-80 102 % of control | [14] 106 % of control and 97 % of control | [15] 105 % of control
